Reference: patent US6458816B1, “Modified prodrug forms of AP/AMP” (Vion Pharmaceuticals, Inc., priority 2000, dated 2002)

Assays:
[1] = In vivo PK of ortho phosphate bearing 3-AP prodrugs, single intravenous dose, beagle dog; settings: for V/F of 3-AP: 3-AP in dog after i.v. prodrug; for Cmax of 3-AP: equimolar doses (equivalent to 3 mg/kg of 3-AP)
Experimental: The pharmacokinetics of 3-AP prodrugs were characterized following administration of a single intravenous dose of 7.2-8.5 mg/kg of 3-AP phosphate prodrugs (equivalent to 3 mg/kg of 3-AP) to a beagle dog. The animal was dosed once with each prodrug weekly. After each dose, a washout period of at least 6 days was maintained before the next dose was administered. Concentrations of 3-AP (Triapine) and prodrug in serum were determined by HPLC and used to calculate various PK parameters. These PK parameters were compared to those of 3-AP from equimolar doses from a separate study. Mean serum drug concentration versus time data were analyzed by both compartmental and non-compartmental models. AUC, total body clearance (Cl), steady-state volume of distribution (Vd,ss), terminal half-life (T1/2), Cmax, Tmax were calculated for both 3-AP and the prodrugs.
Ortho-phosphate prodrug was shown previously to undergo rapid bioconversion to 3-AP when incubated in vitro with alkaline phosphatase. […] At no time have we been able to detect the presence of the intermediary phenol which is the expected cleavage product. […] The 4-chloro (16), 5-methoxy (9) and 5-fluoro (7) analogs were promising in this regard as reflected in their AUCs and half-lives.
Pharmacokinetic parameters of 3-AP itself following i.v. administration of equimolar doses of the prodrugs are presented in Table 3, below.

[2] = test system: M109 murine lung carinoma; test: Activity in the M109 Lung Carcinoma Model; format: in vivo, Balb/c mice; settings: for Relative Activity: CTX=Cytoxan
Text: Twelve (12) 3-AP prodrugs have been evaluated for efficacy and toxicity using the M109 murine lung carinoma model in Balb/c mice. The procedure of the experiment is as follows: eight week aged female Balb/c mice (about 20 grams) were subcutaneously inoculated with 5×10^5/mouse of M109 murine lung carinoma cells at the right flank on day 0. The mice were then randomly grouped and each group consisted of 8-10 mice. 3-AP was used with the Triapine™ formulation while all 3-AP prodrugs were either dissolved or suspended in sterile deionized water. The body weight of mice and the tumor volume were measured twice weekly until the tumor in the control group became necrotic or at least one animal was dead in the control group.

[3] = Solubility in aqueous solution; format: physicochemical
[4] = Rising dose pharmacokinetic and toxicokinetic study in dogs with clinical observations; format: in vivo; settings: dog, Triapine itself dosed at 3 mg/kg, separate study
Experimental: Initially, both prodrugs were studied at a single dose of 7.5-7.7 mg/kg (equivalent to 3 mg/kg of Triapine).
PK parameters of Triapine and the two prodrugs are presented in Tables 4 and 5 and are compared to those obtained, in a separate study, from administration of 3 mg/kg of Triapine (equivalent to approximately 7.5 mg/kg of prodrugs).
Serum prodrug peak concentrations and AUCs, on the other hand, were not linear with dose, and appeared to be saturated at the doses investigated. Serum concentration-time profiles of prodrugs and Triapine are presented in attached FIGS. 4 and 5. […] The sustained serum Triapine levels were presumably attributable to the high serum levels of prodrugs as well as their low total body clearance.
Treatment-related clinical observations were recorded for both dogs. […] These observations were not present on day 2. The only adverse clinical sign on day 2 was the absence of stool.
Treatment-related clinical observations were recorded for the female treated at 80 mg/kg. […] In addition, the dog was pale (pallor), diarrhea was noted, and had yellow mucous in the stool. All observations were noted on day 1 and the dog was recovered on day 2.

[5] = Pharmacokinetic Study in beagle dogs at 20-80 mg/kg; format: in vivo, beagle dogs (Canis familiaris); settings: 30 and 40 mg/kg level
Experimental: Drug levels were determined for the animals at the intervals which are indicated in attached FIGS. 12-15.

[6] = test system: M109 lung carinoma cells; test: Efficacy of 3-AP prodrugs on M109 Lung Carcinoma in Balb/c Mice; format: in vivo; settings: M109-bearing Balb/c mice
Text: Drug treatment was started on day 5 according to the above schedule. […] The drinking water was autoclaved before use.

[7] = test system: solid tumors; settings: phase 1, patients with solid tumors; cited from earlier work
[8] = Human serum stability; format: in vitro ADME; settings: incubation in human serum
Experimental: Bioconversion of prodrugs to 3-AP catalyzed by alkaline phosphatase. The bioactivation of dimethyl para-prodrug and a subset of the ortho phosphate prodrugs was studied using 4.65×10^−5 unit of phosphatase enzyme solution (Type VII-SA, from Bovine Intestinal Mucose, Sigma). Upon incubation with phosphatase, all the prodrugs were converted cleanly to the parent drug 3-AP. Under these experimental conditions, there was no significant increase in the half-life (T1/2) of bioactivation of ortho phosphate prodrugs compared to that of unsubstituted ortho prodrug (Table 1, below). Human serum stability studies were conducted by incubating the prodrugs at 37° C. in human serum.

[9] = 3-AP in dog serum after i.v. prodrug, equimolar doses
[10] = 3-AP in dog serum after i.v. prodrug
[11] = prodrug in dog serum, single i.v. dose 7.2-8.5 mg/kg
[12] = prodrug in dog serum, single i.v. dose 7.2-8.5 mg/kg (equivalent to 3 mg/kg of 3-AP)
[13] = prodrug in dog, single i.v. dose 7.2-8.5 mg/kg
[14] = 60QD mpk ip, day 3-7, 10-14, 17-21
[15] = 5.5 (bid) mpk ip, day 3-7, 10-14
[16] = 100QD mpk ip, day 3-7, 10-14, 17-21

Structure (SMILES) | V/F of 3-AP ([1]; equimolar doses) [L/kg] | AUC of 3-AP [1, 9] [µg·min/L] | T1/2 of 3-AP [1, 9] [h] | Cmax of 3-AP [1, 10] [µg/mL] | AUC of prodrug [1, 11] [µg·min/L] | T1/2 of prodrug [1, 11] [h] | Cmax of prodrug [1, 12] [µg/mL] | Cl of prodrug [1, 13] [mL/min/kg] | Vss of prodrug [1, 13] [L/kg] | BW Loss (%) [2, 14] [%] | Inhibition (%) [2, 14] [%] | Relative Activity [2, 14] | further results
NC(=S)N/N=C/c1ncccc1NC(=O)OCc1cc([N+](=O)[O-])ccc1OP(=O)(O)O [5-NO2-(8)] | 4.27 | 84 | 0.5 | 1.9 | 3396 | 0.317 | 126 | 2.33 | 0.12 | 9.7 | 33 | <<CTX | –
NC(=S)N/N=C/c1ncccc1N [3-AP (1A)] | – | – | – | – | – | – | – | – | – | – | – | – | solubility in aqueous solution [3]: less than 0.1 mg/ml; Cmax ([4]; Table 5): 2.3 µg/mL; AUC of Triapine [4]: 124 mg·min/L; Cmax of Triapine [4]: 2.3 µg/mL; V/F of Triapine [4]: 3.57 L/kg; half life of 3-AP itself in the dog ([1]; 3-AP itself dosed, dog serum): ~1.5 h; BW Loss (%) [2, 15]: 8.09%; Inhibition (%) [2, 15]: 60%; Relative Activity [2, 15]: <CTX; toxicity to the animals [5]: toxic
NC(=S)N/N=C/c1ncccc1NC(=O)OCc1cc(C(F)(F)F)ccc1OP(=O)(O)O [5-CF3-(11)] | 2.74 | 280 | 1.1 | 3.0 | 9579 | 0.717 | 156 | 0.86 | 0.08 | – | – | – | BW Loss (%) [2, 16]: 9.1%; Inhibition (%) [2, 16]: 77%; Relative Activity [2, 16]: <CTX
NC(=S)N/N=C/c1ncccc1NC(=O)OCc1ccccc1OP(=O)(O)O [Ortho- (3), reference compound] | – | 698 | – | – | 63309 | – | – | – | – | – | – | – | reason treatment was stopped before the end of the experiment [6]: severe toxic reactions or mortality of the mice; Cmax ([1]; beagle, iv, prodrug in dog serum, single i.v. dose 7.2-8.5 mg/kg (equivalent to 3 mg/kg of 3-AP)): 125 µg/mL; half-life ([1]; beagle, iv, prodrug in dog serum, single i.v. dose 7.2-8.5 mg/kg, read-out: T1/2 of prodrug (converted)): 5.9 h; clearance ([1]; beagle, serum, iv, prodrug in dog, single i.v. dose 7.2-8.5 mg/kg, read-out: Cl of prodrug): 0.11 mL/min/kg; Vd ([1]; beagle, serum, iv, prodrug in dog, single i.v. dose 7.2-8.5 mg/kg, read-out: Vss of prodrug): 0.14 L/kg; BW Loss (%) ([2]; 48QD mpk ip, day 5-9, 12-16): 12.6%; Inhibition (%) ([2]; 48QD mpk ip, day 5-9, 12-16): 70%; Relative Activity ([2]; 48QD mpk ip, day 5-9, 12-16): <CTX; activity versus cytoxan ([2]; M-109 solid tumor bearing mice): comparable activity to that of cytoxan; efficacy and toxicity versus parent 3-AP ([2]; M-109 solid tumor bearing mice): better efficacy with reduced toxicity than the parent 3-AP; efficacy on M109 lung carcinoma compared with the 3-AP parent drug at the MTD ([2]; mice): better efficacy; toxicity to the animals [5]: toxic
N/C(S)=N/N=C/c1ncccc1NC(=O)OCc1ccc(OP(=O)(O)O)cc1 [Para- (2), reference compound] | – | 74.5 | – | – | – | – | – | – | – | – | – | – | –
NC(=S)N/N=C/c1ccc(O)cn1 [5-HP] | – | – | – | – | – | – | – | – | – | – | – | – | activity in patients [7]: inactive
Cc1cccc(COC(=O)Nc2cccnc2/C=N/NC(N)=S)c1OP(=O)(O)O [3-CH3-(15)] | 5.18 | 998 | 7.8 | 1.5 | 66756 | 5.3 | 147 | 0.11 | 0.08 | – | – | – | Tmax of 3-AP [1, 9]: 7.8 min; BW Loss (%) ([2]; 60QD mpk ip, day 3-7, 10-14): 7.9%; Inhibition (%) ([2]; 60QD mpk ip, day 3-7, 10-14): 64%; Relative Activity ([2]; 60QD mpk ip, day 3-7, 10-14): <CTX
COc1ccc(COC(=O)Nc2cccnc2/C=N/NC(N)=S)c(OP(=O)(O)O)c1 [4-CH3O (17)] | – | – | – | – | – | – | – | – | – | – | – | – | Half-life, Human Serum 37° C. [8]: 13.3 h
NC(=S)N/N=C/c1ncccc1NC(=O)OCc1cc(Cl)c(Cl)cc1OP(=O)(O)O [4,5-Di-Cl-(13)] | 3.14 | 392 | 1.7 | 2.7 | 21499 | – | 220 | – | – | 10.0 | 57 | <CTX | –
NC(=S)N/N=C/c1ncccc1NC(=O)OCc1c(OP(=O)(O)O)ccc(Cl)c1Cl [5,6-Di-Cl-(14)] | 2.32 | – | 1.6 | 3.6 | 34211 | – | 202 | – | – | 7.0 | 59 | <CTX | –
NC(=S)N/N=C/c1ncccc1NC(=O)OCc1cc(Cl)cc(Cl)c1OP(=O)(O)O [3,5-Di-Cl-(12)] | 3.99 | 163 | 0.9 | 2.1 | 6939 | 0.567 | 140 | 1.2 | 0.08 | 9.0 | 58 | <CTX | –
